Assay results as given in patent publication US20260042764A1, “COMPOSITIONS AND METHODS FOR INHIBITION OF KRAS” (TheRas, Inc., priority 2022, published 2026).
Like-named read-outs stand apart in the source and are kept apart here.

What was measured:
[1] = test system: HPAC cells (KRAS G12D); test: 3D Cell viability assay in HPAC cells (Biological Example 6); format: cell-based; conditions: HPAC (KRAS G12D) spheroids
How it was run: (§1)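 Luminescent ATP read-out (CellTiter-Glo 3D) after 72 h compound exposure gives viability of preformed spheroids. Cells were seeded at 1000 per well in low-attachment plates and left 48 h to aggregate before dosing with nine three-fold concentrations at 0.25% DMSO.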

[2] = test system: HT1080 cells (NRAS); test: Cell-based pERK HTRF assay in HT1080 cells (Biological Example 5)
Protocol: (§2) Biological Example 5: Cell-based PERK HTRF assay in AsPC-1, SW1900, HPAC, Capan-2, RKN, H358, HCT116, KP-2, H1573, A549, MKN1, and HT1080 cells
(§3) The inhibition of ERK phosphorylation, as measured using the HTRF Advanced Phospho-ERK 1/2 (Thr202/Tyr204) Detection Assay kit (Perkin Elmer), was used to determine the effectiveness of test compounds in disrupting KRAS-driven protein/effector signaling in cells.
(§4) On day 1, cells were seeded into 96-well plates at 2.5×10^4 cells/well in 100 μL of complete growth media supplemented with 10% fetal bovine serum (FBS) and incubated at 37° C., in the presence of 5% CO2.
(§5) On day 2, cells were treated with compounds diluted in DMSO at 0.25% final DMSO concentration. Compounds were dosed in a 9-point concentration curve with three-fold dilution between concentrations. Cells were incubated in the presence of compound for two hours at 37° C. Following this treatment period, cells were harvested by aspirating the media, adding 40 μL of kit-supplied 1x lysis buffer per well, and shaking for 30 minutes at 250 rpm at room temperature.
(§6) Following cell lysis, samples were homogenized by pipetting up and down twenty times and 16 μL of cell lysate per well was transferred from the 96-well cell culture plate to two wells of a 384-well detection plate. A complete detection buffer was prepared by diluting D2 and Eu Cryptate antibodies 1:20 in kit-provided detection solution, 4 μL of complete detection buffer was then added to each well with lysate. Plates were incubated with gentle rocking for 24 hours at 4° C.
(§7) Following this incubation period, plates were centrifuged at 500×g for one minute and analyzed on a CLARIOstar plate reader. Data was imported into Microsoft Excel and the signal from the 665 nm channel was divided by the signal from the 620 nm channel. % pERK was calculated as: […]
(§8) Data was imported to the Prism software package (Graphpad) and EC50 values were calculated using the log (inhibitor) vs, response—variable slopc (Four parameters) model.

[3] = test system: HCT116 cells (KRAS G13D); test: Cell-based pERK HTRF assay in HCT116 cells (Biological Example 5)
Protocol: as §2, §3, §4, §5, §6, §7, §8

[4] = test system: H358 cells (KRAS G12C); test: Cell-based pERK HTRF assay in H358 cells (Biological Example 5)
Protocol: as §2, §3, §4, §5, §6, §7, §8

[5] = test system: A549 cells (KRAS G12S); test: Cell-based pERK HTRF assay in A549 cells (Biological Example 5)
Protocol: as §2, §3, §4, §5, §6, §7, §8

[6] = test system: HCT116 cells (KRAS G13D); test: 3D Cell viability assay in HCT116 cells (Biological Example 6); format: cell-based; conditions: HCT116 (KRAS G13D) spheroids, 72 hours
How it was run: as §1

[7] = test system: HPAC cells (KRAS G12D); test: Cell-based pERK HTRF assay in HPAC cells (Biological Example 5)
Protocol: as §2, §3, §4, §5, §6, §7, §8

[8] = test system: RKN cells (KRAS G12V); test: 3D Cell viability assay in RKN cells (Biological Example 6); format: cell-based; conditions: RKN (KRAS G12V) spheroids, 72 hours
Protocol: (§9) Biological Example 6: 3D Cell viability assay in AsPC-1, SW1900, HPAC, Capan-2, RKN, H358, HCT116, KP-2, H1573, A549, MKN1, and HT1080 cells
(§10) The inhibition of cellular viability as a result of test compound treatment in a spheroid assay was measured using the CellTiter-Glow 3D Cell Viability Assay (Promega).
(§11) On Day 1, 1000 cells per well were seeded in 150 μL of complete growth media supplemented with 10% fetal bovine serum (FBS) and incubated at 37° C., in the presence of 5% CO2 in 96-well ultra-low attachment microplates (Corning) for 48 hours undisturbed to allow spheroids to form.
(§12) Following spheroid formation, cells were treated with compounds diluted in DMSO at 0.25% final DMSO concentration. Compounds were dosed in a 9-point concentration curve with three-fold dilution between concentrations. Cells were incubated in the presence of compound for 72 hours at 37° C., in the presence of 5% CO2.
(§13) Following this incubation period, the kit-provided CTG reagent was allowed to equilibrate for 30 minutes at room temperature, 150 μL of equilibrated CTG reagent was added to each well, and the plate was sealed before shaking at 250 rpm for 10 minutes at room temperature to lyse the cells, 150 μL of lysate per well was transferred to a 96-well plate and luminescence was read on a CLARIOstar plate reader.
(§14) Data was imported into the Prism software package (Graphpad) and EC50 values were calculated using the log (inhibitor) vs, response—variable slope (Four parameters) model.

[9] = test system: Capan-2 cells (KRAS G12V); test: Cell-based pERK HTRF assay in Capan-2 cells (Biological Example 5)
Protocol: as §2, §3, §4, §5, §6, §7, §8

[10] = test system: MKN1 cells (KRAS amplification); test: Cell-based pERK HTRF assay in MKN1 cells (Biological Example 5)
Protocol: as §2, §3, §4, §5, §6, §7, §8

[11] = test system: H1573 cells (KRAS G12A); test: 3D Cell viability assay in H1573 cells (Biological Example 6); format: cell-based; conditions: H1573 (KRAS G12A) spheroids, 72 hours
Protocol: as §9, §10, §11, §12, §13, §14

[12] = test system: A549 cells (KRAS G12S); test: 3D Cell viability assay in A549 cells (Biological Example 6); format: cell-based; conditions: A549 (KRAS G12S) spheroids, 72 hours
Protocol: as §9, §10, §11, §12, §13, §14

[13] = test system: H358 cells (KRAS G12C); test: 3D Cell viability assay in H358 cells (Biological Example 6); format: cell-based; conditions: H358 (KRAS G12C) spheroids, 72 hours
How it was run: as §1

[14] = test system: SW1900 cells (KRAS G12D); test: Cell-based pERK HTRF assay in SW1900 cells (Biological Example 5)
Protocol: as §2, §3, §4, §5, §6, §7, §8

[15] = test system: RKN cells (KRAS G12V); test: Cell-based pERK HTRF assay in RKN cells (Biological Example 5)
Protocol: as §2, §3, §4, §5, §6, §7, §8

[16] = test system: SW1900 cells (KRAS G12D); test: 3D Cell viability assay in SW1900 cells (Biological Example 6); format: cell-based; conditions: Homo sapiens; SW1990 (text: SW1900, KRAS G12D) spheroids, 72 hours
How it was run: as §1

[17] = Homo sapiens, NCI-H358, H358 (KRAS G12C) cells
[18] = Homo sapiens, MKN-1, MKN cells (MKN1, KRAS amplification)
[19] = Homo sapiens, SW1990, SW1990 cells (text: SW1900, KRAS G12D)

Compound	IC50 ([1]; Homo sapiens, HPAC, 72 h)	IC50 ([2]; Homo sapiens, HT-1080)	IC50 ([3]; Homo sapiens, HCT-116)	IC50 [16]	IC50 [4, 17]	IC50 ([5]; Homo sapiens)	IC50 ([6]; Homo sapiens, HCT-116)	IC50 ([7]; Homo sapiens, HPAC)	IC50 [10, 18]	IC50 ([11]; Homo sapiens, NCI-H1573)	IC50 ([12]; Homo sapiens)	IC50 ([13]; Homo sapiens, NCI-H358)	IC50 [14, 19]	other results
CN(c1nc(OC[C@@]23CCCN2C[C@H](F)C3)nc2c(F)c(-c3ccc(F)c4sc(N)c(C#N)c34)c(C(F)(F)F)cc12)[C@H]1C[C@@H](O)C1 [Compound 19, 2-amino-7-fluoro-4-((S)-8-fluoro-2-(((2R,7aS)-2-fluorotetrahydro-1H-pyrrolizin-7a(5H)-yl)methoxy)-4-(((1s,3R)-3-hydroxycyclobutyl)(methyl)amino)-6-(trifluoromethyl)quinazolin-7-yl)benzo[b]thiophene-3-carbonitrile]	–	–	–	–	–	–	–	–	–	–	–	–	–	IC50 ([1]; 72 hours): 100 to 1000 nM; IC50 [2]: > 1000 nM; IC50 [3]: ≤ 100 nM; IC50 ([4]; H358 (KRAS G12C) cells): ≤ 100 nM; IC50 [5]: 100 to 1000 nM; IC50 [6]: ≤ 100 nM; IC50 [7]: ≤ 100 nM; IC50 [8]: ≤ 100 nM; IC50 ([9]; Capan-2 (KRAS G12V) cells): ≤ 100 nM; IC50 ([10]; MKN cells (MKN1, KRAS amplification)): ≤ 100 nM; IC50 [11]: ≤ 100 nM; IC50 [12]: 100 to 1000 nM; IC50 [13]: ≤ 100 nM; IC50 ([14]; SW1990 cells (text: SW1900, KRAS G12D)): ≤ 100 nM; IC50 [15]: ≤ 100 nM
C[C@@H]1[C@H](N(C)c2nc(OC[C@@]34CCCN3C[C@H](F)C4)nc3c(F)c(-c4ccc(F)c5sc(N)c(C#N)c45)c(C(F)(F)F)cc23)CCN1C(=O)C1CC1 [Compound 258]	100 to 1000 nM	> 1000 nM	≤ 100 nM	≤ 100 nM	≤ 100 nM	≤ 100 nM	100 to 1000 nM	> 1000 nM	≤ 100 nM	≤ 100 nM	≤ 100 nM	≤ 100 nM	≤ 100 nM	–
CC(=O)N1CC[C@@H](N(C)c2nc(OC[C@@]34CCCN3C[C@H](F)C4)nc3c(F)c(-c4ccc(F)c5sc(N)c(C#N)c45)c(Cl)cc23)[C@H]1C [Compound 398]	100 to 1000 nM	> 1000 nM	≤ 100 nM	100 to 1000 nM	≤ 100 nM	≤ 100 nM	100 to 1000 nM	100 to 1000 nM	≤ 100 nM	≤ 100 nM	≤ 100 nM	≤ 100 nM	≤ 100 nM	IC50 ([9]; Homo sapiens, Capan-2, Capan-2 (KRAS G12V) cells): ≤ 100 nM
